In ChEMBL document CHEMBL5120916, “Structure-Activity Relationships and Antileukemia Effects of the Tricyclic Benzoic Acid FTO Inhibitors” (J Med Chem, 2022):
Calls of active or inactive are those of the source. No cut-off for these calls is given here.

Assays:
[1] = molecular target: T1, Alpha-ketoglutarate-dependent dioxygenase FTO (Homo sapiens, UniProt Q9C0B1); test: Inhibition of N-terminal His-tagged human FTO expressed in Escherichia coli BL21(DE3) by PAGE based assay
Target sequence in this assay (Q9C0B1 whole entry): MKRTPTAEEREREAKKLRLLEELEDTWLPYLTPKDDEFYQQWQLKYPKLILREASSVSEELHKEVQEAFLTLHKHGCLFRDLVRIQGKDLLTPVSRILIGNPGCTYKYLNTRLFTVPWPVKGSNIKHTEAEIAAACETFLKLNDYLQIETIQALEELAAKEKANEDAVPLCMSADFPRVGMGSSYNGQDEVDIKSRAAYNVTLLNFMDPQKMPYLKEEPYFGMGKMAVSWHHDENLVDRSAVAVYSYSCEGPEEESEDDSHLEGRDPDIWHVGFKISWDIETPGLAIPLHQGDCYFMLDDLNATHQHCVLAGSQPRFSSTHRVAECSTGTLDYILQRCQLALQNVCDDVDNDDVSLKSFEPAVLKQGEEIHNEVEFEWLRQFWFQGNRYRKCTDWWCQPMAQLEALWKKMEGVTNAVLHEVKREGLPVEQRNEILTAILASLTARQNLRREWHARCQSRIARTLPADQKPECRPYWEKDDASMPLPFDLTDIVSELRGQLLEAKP

[2] = system: NB-4; test: Antiproliferative activity against human NB-4 cells assessed as reduction in cell viability at 10 uM administered as single dose measured after 48 hrs by CCK-8 assay; format: functional, cell-based
[3] = system: MONO-MAC-6; test: Antiproliferative activity against human MONO-MAC-6 cells assessed as reduction in cell viability at 10 uM administered as single dose measured after 48 hrs by CCK-8 assay; format: functional, cell-based
[4] = system: NB-4; test: Antiproliferative activity against human NB-4 cells assessed as reduction in cell viability measured after 48 hrs by CCK-8 assay; details: NB-4, 48 h
[5] = system: MONO-MAC-6; test: Antiproliferative activity against human MONO-MAC-6 cells assessed as reduction in cell viability measured after 48 hrs by CCK-8 assay; details: MONO-MAC-6, 48 h
[6] = system: THP-1; test: Antiproliferative activity against human THP-1 cells assessed as reduction in cell viability measured after 48 hrs by CCK-8 assay; details: THP-1, 48 h
[7] = system: HEL; test: Antiproliferative activity against HEL cells assessed as reduction in cell viability measured after 48 hrs by CCK-8 assay; details: Homo sapiens
[8] = system: NB-4; test: Inhibition of colony formation in human NB-4 cells measured after 14 days by nitroblue tetrazolium chloride staining based soft agar assay; format: functional, cell-based; details: dose 5-15 µM, time 14.0 day, DDE = dose-dependent effect
[9] = Acute toxicity in BALB/c mouse assessed as body weight loss at 20 mg/kg, ip administered once daily for 7 days; format: organism-based; details: in vivo, 168 h, time 7 day
[10] = system: MONO-MAC-6; test: Antitumor activity against human MONO-MAC-6 cells xenografted in busulfan treated NSG mouse assessed as increase in animal survial rate at 20 mg/kg, ip administered once daily for 22 days; format: functional, organism-based; details: time 22.0 day
[11] = Toxicity in busulfan treated NSG mouse xenografted with human MONO-MAC-6 cells assessed as reduction in body weight at 20 mg/kg, ip administered once daily for 22 days; format: organism-based; details: in vivo, 528 h, time 22 day
[12] = molecular target: T1, Alpha-ketoglutarate-dependent dioxygenase FTO
Target sequence in this assay (Q9C0B1 whole entry, looked up): as the sequence (Q9C0B1 whole entry) above
Description: Binding affinity to N-terminal His-tagged human FTO expressed in Escherichia coli BL21(DE3) assessed as change in melting temperature at 1:5 protein to compound ratio by fluorescence based thermal shift assay

[13] = molecular target: T1, Alpha-ketoglutarate-dependent dioxygenase FTO; remark: listed apart in the source
Target sequence in this assay (Q9C0B1 whole entry, looked up): as the sequence (Q9C0B1 whole entry) above
Description: Binding affinity to N-terminal His-tagged human FTO expressed in Escherichia coli BL21(DE3) assessed as change in melting temperature at 1:20 protein to compound ratio by fluorescence based thermal shift assay

Cc1cc(-c2c(C)noc2C)cc(C)c1Nc1ccccc1C(=O)O
IC50 [1]: 1900 nM

Cc1noc(C)c1-c1cc(F)c(Nc2ccccc2C(=O)O)c(Cl)c1
Activity [2]: Active | Activity [3]: Active | IC50 [4]: 2100 nM | IC50 [5]: 1900 nM | IC50 [6]: 7300 nM | IC50 [7]: 7700 nM | inhibition [8]: Dde | Activity [9]: Non-Toxic | Activity [10]: Active | Activity [11]: Toxic

CCc1cc(-c2c(C)noc2C)cc(CC)c1Nc1ccccc1C(=O)O
IC50 [1]: 1400 nM

Cc1noc(C)c1-c1ccc(Nc2ccccc2C(=O)O)cc1
Activity [2]: Active | Activity [3]: Active

Cc1noc(C)c1-c1cc(Cl)c(Nc2ccc(F)cc2C(=O)O)c(Cl)c1
IC50 [1]: 1100 nM

O=C(O)c1ccccc1Nc1c(Cl)cc(-c2cc(O)cc(O)c2)cc1Cl
IC50 [1]: 2400 nM

O=C(O)c1ccccc1Nc1c(Cl)cc(-c2ccn[nH]2)cc1Cl
IC50 [1]: 7200 nM

COc1cccc(Nc2c(Cl)cc(-c3c(C)noc3C)cc2Cl)c1C(=O)O
IC50 [1]: 2200 nM

O=C(O)c1ccccc1Nc1c(Cl)cc(-c2cnoc2)cc1Cl
IC50 [1]: 1700 nM

Cc1cc(-c2cc(Cl)c(Nc3ccccc3C(=O)O)c(Cl)c2)ccn1
IC50 [1]: 6500 nM

COc1cc(-c2c(C)noc2C)cc(OC)c1Nc1ccccc1C(=O)O
Activity [2]: Active | Activity [3]: Active

O=C(O)c1ccccc1Nc1c(Cl)cc(-c2ccncc2)cc1Cl
IC50 [1]: 1500 nM | ΔTm [12]: 0.5 °C | ΔTm [13]: 1.5 °C

Cc1noc(C)c1-c1cc(Cl)c(Nc2cc(F)c(F)cc2C(=O)O)c(Cl)c1
IC50 [1]: 3400 nM

Cc1noc(C)c1-c1cc(Cl)c(Nc2cccc(F)c2C(=O)O)c(Cl)c1
IC50 [1]: 1600 nM
